# Like-named read-outs stand apart in the source and are kept apart here.
# Tests used:
# [1] = clinical; assay type: in vitro ADME; conditions: both sexes, human, serum, % free in serum
# Description: Steady state serum samples for measurement of cilansetron protein binding were collected at predose, and 1 and 1.5 hours postdose on Day 6.
# [2] = both, human, in vivo
# Description: The effect of hepatic impairment on the pharmacokinetics of cilansetron was evaluated in a multiple-dose, parallel group study in 14 healthy and 14 moderately to severely hepatically impaired male and female subjects, aged 41-70 years. Impaired subjects (Child-Pugh score 7 to 11) were matched to healthy subjects by age (±2 years), sex, menstrual status, and smoking history status. All subjects received oral cilansetron 8 mg TID on Days 1 to 5, and a single dose on the morning of Day 6. […] Blood samples were also collected at predose on Day 1, and at predose, 1 hour and 1.5 hours postdose on Day 6, for measurement of cilansetron protein binding in serum.
# [3] = system: healthy subjects; conditions: in vivo
# Description: In a randomized, double-blind, placebo-controlled, 2-way crossover study in 9 male and 9 female healthy subjects (ITT population, aged 21-39 years), subjects were randomized to receive 2 treatments (cilansetron 16 mg tablet and placebo) during the 2 treatment periods. During each treatment period, subjects received a single dose of their assigned treatment on the first day (Day 1), after which they received the same treatment TID for 4 days (Days 2-5). There was a 10-day washout period between treatment periods. Subjects were fasted for at least 2 hours before and following each dose, and heavy physical activity was restricted. Serial 12-lead ECGs was recorded up to 24 hours following dosing on Day 1 (single dose) and on the last day (Day 5) of each treatment period. Heart rate and ECG intervals (RR, PR, QRS, and QT) were measured electronically, but were manually verified and corrected if needed by the investigator. QT intervals were corrected (QTc) electronically for heart rate using the Bazett's correction. Mean and maximum QTc intervals were calculated over different time intervals postdose and were compared between treatments using an ANOVA accounting for sequence, gender, subject within sequence and gender, period, and treatment effects.
# [4] = assay type: in vitro ADME
# Description: (§1) Protein binding was also evaluated in an in vitro study in human, mouse, rat, and dog plasma using equilibrium dialysis (12-14K molecular weight cut-off membrane). This study measured the binding of (^14C)-cilansetron in plasma at nominal concentrations (30, 90, and 300 ng/mL) which are much higher than those encountered in vivo in humans. This study also measured the binding of (^14C)-cilansetron to purified human serum albumin at cilansetron concentrations ranging from 30-3000 ng/mL and to purified human alpha-1 acid glycoprotein (AAG) at concentrations ranging from 30-10000 ng/mL.
# [5] = system: purified human alpha-1 acid glycoprotein (AAG); assay type: in vitro ADME
# Description: as §1
# [6] = biological target: purified human serum albumin (Homo sapiens, UniProt P02768); assay type: in vitro ADME
# Description: as §1
# [7] = system: non-constipated IBS subjects; assay: Study S241.2.112: Phase II dose-ranging efficacy; assay type: in vivo, human
# Description: Study S241.2.112 was a Phase II, double-blind, placebo-controlled, randomized, multicenter parallel-group, dose-ranging study to investigate the efficacy and safety of cilansetron in non-constipated subjects with irritable bowel syndrome. The study was conducted in 51 study centers in the U.S. A total of at least 88 subjects were planned per treatment group evaluable for efficacy, in total 440 to complete the study; 975 subjects were screened; 490 were randomized and 481 analyzed for safety.
# Diagnosis and main criteria for inclusion were IBS subjects satisfying the Rome criteria (1992) and minimum abdominal pain/discomfort, stool frequency and consistency determined during the run-in period. Subjects were treated with cilansetron 1 mg, 2 mg, 8 mg, and 16 mg tablets given orally TID or matching placebo tablets given orally TID for 12 weeks.
# Efficacy was evaluated by weekly global questions concerning adequate relief of IBS symptoms (abdominal pain/discomfort, abnormal bowel habits). A responder is a subject who responded “Yes” at least 50% of the time after randomization, with a minimum treatment duration of four weeks.
# [8] = system: patients with malignant tumors; assay: Study S.241.2.101: cisplatin-induced nausea and vomiting; assay type: in vivo, human; conditions: IV 8 mg TID
# Description: The effect of cilansetron on nausea and vomiting has been studied in 2 clinical studies in cancer patients. Both studies were randomized, singleblind, positive-controlled, parallel-group, pilot studies in male and female patients with malignant tumors, to investigate the effect of cilansetron on cytostatic-induced nausea and vomiting. In both studies, patients were on their first cycle of chemotherapy and were being treated with cisplatin (275 mg/m2 as a single dose in Study S.24 1.2.10 1 and […] for 5 days in Study K.24 1 S O 17). Patients in Study S.24 1.2.10 1 were aged 40-74 years (ITT population=16) and patients in Study K.24 1 S O 17 were aged 39-74 years (ITT population=19). In both studies, patients were randomized to receive either […] or IV ondansetron 8 mg TID for 1 day (Study S.241.2.101) or 5 days (Study K.2415017), corresponding to the day(s) of their cisplatin administration. If nausea and vomiting were completely controlled on a treatment day, the second and/or third doses of cilansetron or ondansetron could be omitted on that day. The primary efficacy parameter in both studies was the combination of the occurrence of vomiting and the severity of nausea, with a responder being defined as a patient with no vomiting and not more than mild nausea during the treatment day(s). […]
# [9] = system: CYP2A6, CYP2B6, CYP2C9, CYP2D6, and CYP2E1
# Description: The CYP mRNA induction potentials of cilansetron and its two main metabolites, (4S)-hydroxy and (4R)-hydroxy cilansetron, were determined in human hepatocytes and compared to three model inducers, 3-methylcholantrene, phenobarbital, and rifampin.
# Chain of purified human serum albumin (P02768 25-609): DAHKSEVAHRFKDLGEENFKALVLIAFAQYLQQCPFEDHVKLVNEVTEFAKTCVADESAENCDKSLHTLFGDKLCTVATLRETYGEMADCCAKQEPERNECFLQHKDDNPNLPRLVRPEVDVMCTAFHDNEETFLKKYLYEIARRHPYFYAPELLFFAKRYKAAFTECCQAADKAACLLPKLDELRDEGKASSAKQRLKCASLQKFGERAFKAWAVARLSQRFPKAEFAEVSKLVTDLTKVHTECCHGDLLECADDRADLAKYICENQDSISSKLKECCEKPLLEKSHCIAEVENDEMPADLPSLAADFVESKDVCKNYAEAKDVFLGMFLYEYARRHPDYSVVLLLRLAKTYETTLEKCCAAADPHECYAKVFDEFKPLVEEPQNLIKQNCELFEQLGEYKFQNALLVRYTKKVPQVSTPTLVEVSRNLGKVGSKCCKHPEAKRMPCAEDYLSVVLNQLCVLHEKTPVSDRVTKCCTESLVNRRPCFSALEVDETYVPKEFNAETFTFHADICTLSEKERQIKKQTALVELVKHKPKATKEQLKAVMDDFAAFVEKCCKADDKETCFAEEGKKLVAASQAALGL
compound,measurement,setting,value
"Cc1nccn1C[C@H]1CCc2c(c3cccc4c3n2CCC4)C1=O [Cilansetron, (R)-(−)-4,5,6,8,9,10-hexahydro-10-[(2-methyl-1H-imidazol-1-yl)methyl]-11H-pyrido-[3,2,1-jk]-carbazol-11-one]",fraction unbound,[1],0.055
same,Increase in half-life with hepatic impairment,[2],2 fold
same,AUC increase with hepatic impairment,[2]; 8 mg,88%
same,Cmax increase with hepatic impairment,[2]; 8 mg,22%
same,AUC(0-τ) Ratio,"[2]; po, 8 mg",1.88
same,"AUC(0-τ), Geom. LS Mean","[2]; po, 8 mg",0.178 µg·h/mL
same,Cmax,"[2]; po, 8 mg",75.2 (40) ng/mL
same,Cmax Ratio,"[2]; po, 8 mg",1.22
same,"Cmax, Geom. LS Mean","[2]; po, 8 mg",0.0687 µg/mL
same,T½,"[2]; po, 8 mg",4.37 (25) h
same,Vz/F,"[2]; po, 8 mg",303 (45) L
same,Effect on mean or maximum QTc interval (Bazett's correction),[3],no effect
same,Plasma binding,[4]; dog,86.5%
same,Plasma binding,[4]; mouse,83.3%
same,Plasma binding,[4]; rat,88.2%
same,Binding to AAG,[5],around 90%
same,Binding to human albumin,[6],65.9%
same,Responder rate better than placebo,[7]; 1 mg TID,22%
same,Responder rate better than placebo,"[7]; 1 mg, females",26%
same,Responder rate higher than placebo,[7]; 2 mg TID,13%
same,Responder rate higher than placebo,[7]; 8 mg TID,15%
same,Responder rate better than placebo,[7]; 16 mg TID,22%
same,Response rate,[8],16.7%
same,Inductive effect on other CYP isozymes,[9],did not show an inductive effect
